Data reported in patent US20240293511A1, “HEPCIDIN MIMETICS FOR TREATMENT OF HEREDITARY HEMOCHROMATOSIS” (Protagonist Therapeutics, Inc., priority 2021, published 2024).

Test system: HH patients
Assay: Phase 2 open-label dose-finding study in hereditary hemochromatosis patients
Format: in vivo, human
Procedure: A clinical efficacy study was conducted in HH patients. Subjects received subcutaneous Compound 25 for up to 24 weeks. Subjects were started at an initial dose of 10 mg per week subcutaneously. The dose was increased to 20 mg per week, and subsequently to 40 mg and to 80 mg per week as needed, based on tolerability and the pharmacodynamic marker TSAT. In addition, subcutaneous dosing schedules of 10 mg, 20 mg, 30, and 40 mg twice weekly (Day 1 and either Day 4 or Day 5 were tested). The majority of patients were administered doses of 20 mg per week or less. Subjects' safety and blood iron parameters (serum iron, serum ferritin, transferrin, and TSAT) were collected to monitor the pharmacodynamic effect of Compound 25. Effects on phlebotomy need and QoL data (36-Item Short Form Health Survey [SF-36], and Patient's Global Impression of Change [PGI-C]) were also be collected and tabulated.
Individual subject's dose and schedule were determined based on the pharmacodynamic (PD) marker TSAT measured at two time points following dosing: once at peak PD effect one day post dose and once at trough PD effect. […] The trough PD effect was the TSAT value measured 7 days after the Compound 25 dose (and before the next dose) for once weekly dosing or 7 days after the first dose in a week for twice weekly dosing. […] To facilitate dose escalation and the identification of a therapeutic dose, investigators assessed TSAT values on days subjects came to the clinic for any dose adjustments.
Methods: This single-arm, open-label, dose-finding phase 2 study investigated subcutaneous hepcidin mimetic (Compound 25) in patients (pts) with confirmed HH who were on documented stable phlebotomies (phl) for at least 6 months (mos) prior to treatment with a phl frequency of 0.25-1 per month. […] Endpoints included TSAT, serum iron, serum transferrin and serum ferritin, liver iron content (LIC) measured by FerriScan MRI, adverse events, and patient-reported outcomes on the Patient Global Impression of change (PGI-C) and Medical Outcome Study Questionnaire Short Form Health Survey (SF-36). […]

- hematological parameters (hematocrit, erythrocytes, leucocytes, platelets) (human, in vivo): no notable changes
Structure (SMILES): CCCCCCCCCCCCCCCC(=O)N[C@@H](CCC(=O)NCCCC[C@@H]1NC(=O)[C@H]([C@@H](C)CC)NC(=O)[C@@H](NC(=O)[C@@H]2CCCN2C(=O)[C@H](Cc2ccccc2)NC(=O)[C@H](Cc2c[nH]cn2)NC(=O)[C@@H](NC(=O)[C@H](CC(=O)O)NC(=O)CC(C)C)[C@@H](C)O)CSSC[C@@H](C(=O)N[C@@H](CCCCN)C(N)=O)NC(=O)CNC(=O)[C@H](CCCCN)NC(=O)[C@H](CO)NC(=O)[C@H](CCCNC(=N)N)NC(=O)[C@@H]2CCCN2C(=O)[C@H](CCC(=O)O)NC(=O)[C@H](Cc2ccccc2)NC1=O)C(=O)O [Compound 25, Isovaleric acid-DTHFPCI(K(isoGlu-Palm))FEPRSKGCK-NH2]
- tolerability (HH patients, subcutaneous, up to 24 weeks): generally well tolerated
- treatment-related adverse events, severity (all treatment-related adverse events): CTCAE grade 1 or 2
